Measured values: patent US8476256B2, “Diazonamide analogs” (Joyant Pharmaceuticals, Inc., priority 2008, dated 2013)

Columns and labels:
[1] = test system: A2058 (human melanoma) cell line; test: Cell viability assay (CELL-TITER-GLO), A2058; format: cell-based; conditions: A2058 cells, 48 hour treatment, 1 nM to 1 μM
Protocol: (§1) Cell viability assays were run using standard protocols known to those of skill in art. Cells were plated in 96 well plates at the density of 3,000-10,000 cells per well. Twenty four hours later, cells were treated with increasing concentration of test compounds (1 nM to 1 μM). After another 48 hour, cell survival was measured using CELL-TITER-GLO® reagent (Promega) following the protocol provided by the manufacture. The IC50 value was determined as the concentration of test compound that kills 50% of the cell population.
(§2) Cell viability data generated according to the protocol described herein was generated for representative compounds in the A2058 (human melanoma) and U937 (human leukemic monocyte lymphoma) cell lines. The compound of Example 16 (“Compound J”) was used as a reference compound.

[2] = test system: U937 (human leukemic monocyte lymphoma) cell line; test: Cell viability assay (CELL-TITER-GLO), U937; format: cell-based; conditions: U-937, U937 cells, 48 hour treatment, 1 nM to 1 μM
Protocol: as §1, §2

SMILES	IC50 [1] [µM]	IC50 [2] [µM]
CC(C)[C@H](O)C(=O)N[C@H]1Cc2ccc3c(c2)C24C5=C(N=C(O5)[C@H](C(C)C)NC1=O)c1ncc(o1)-c1c[nH]c5cccc(c15)-c1cc(Br)cc2c1N[C@H]4O3 (some centres unmarked) [Example 84]	0.51	0.648
CCC(C)(C)C(=O)NC1Cc2ccc3c(c2)[C@]24C5=C(N=C(O5)[C@H](C(C)C)NC1=O)c1ncc(o1)-c1c[nH]c5cccc(c15)-c1cccc2c1NC4O3 (some centres unmarked) [Example 40]	0.233	0.164
CCC(O)(CC)C(=O)N[C@H]1Cc2ccc3c(c2)C24C5=C(N=C(O5)[C@H](C(C)C)NC1=O)c1ncc(o1)-c1c[nH]c5c(OC)ccc(c15)-c1cccc2c1N[C@H]4O3 (some centres unmarked) [Example 81]	0.123	0.054
CC(C)[C@@H]1NC(=O)C(NC(=O)[C@@H](O)C2CCCCC2)Cc2ccc3c(c2)[C@]24C5=C(N=C1O5)c1ncc(o1)-c1c[nH]c5cccc(c15)-c1cccc2c1NC4O3 (some centres unmarked) [Example 21]	> 1	> 1
COC(=O)O[C@H](C(=O)N[C@H]1Cc2ccc3c(c2)C24C5=C(N=C(O5)[C@H](C(C)C)NC1=O)c1ncc(o1)-c1c[nH]c5cccc(c15)-c1cccc2c1N[C@H]4O3)C(C)C (some centres unmarked) [Example 32]	0.211	0.157
CC(C)[C@@H]1NC(=O)C(NC(=O)c2ccc(Br)cc2)Cc2ccc3c(c2)[C@]24C5=C(N=C1O5)c1ncc(o1)-c1c[nH]c5cccc(c15)-c1cccc2c1NC4O3 (some centres unmarked) [Example 55]	0.613	0.406
CC/C=C/C(=O)NC1Cc2ccc3c(c2)[C@]24C5=C(N=C(O5)[C@H](C(C)C)NC1=O)c1ncc(o1)-c1c[nH]c5cccc(c15)-c1cccc2c1NC4O3 (some centres unmarked) [Example 43]	0.356	0.186
CC(C)COC(=O)NC1Cc2ccc3c(c2)[C@]24C5=C(N=C(O5)[C@H](C(C)C)NC1=O)c1ncc(o1)-c1c[nH]c5cccc(c15)-c1cccc2c1NC4O3 (some centres unmarked) [Example 69]	0.541	0.272
CCC(O)(CC)C(=O)N[C@H]1Cc2ccc3c(c2)C24C5=C(N=C(O5)[C@H](C(C)C)NC1=O)c1nc(Br)c(o1)-c1c[nH]c5cccc(c15)-c1cc(Br)cc2c1N[C@H]4O3 (some centres unmarked) [Example 88]	> 1	> 1
CC(C)[C@@H]1NC(=O)C(NC(=O)C2CC2)Cc2ccc3c(c2)[C@]24C5=C(N=C1O5)c1ncc(o1)-c1c[nH]c5cccc(c15)-c1cccc2c1NC4O3 (some centres unmarked) [Example 48]	0.457	0.22
CC(C)[C@@H]1NC(=O)C(NC(=O)C2(O)CC2)Cc2ccc3c(c2)[C@]24C5=C(N=C1O5)c1ncc(o1)-c1c[nH]c5cccc(c15)-c1cccc2c1NC4O3 (some centres unmarked) [Example 25]	0.769	0.42
CC(C)=CC(=O)NC1Cc2ccc3c(c2)[C@]24C5=C(N=C(O5)[C@H](C(C)C)NC1=O)c1ncc(o1)-c1c[nH]c5cccc(c15)-c1cccc2c1NC4O3 (some centres unmarked) [Example 42]	0.409	0.221
CC(C)C(Br)C(=O)NC1Cc2ccc3c(c2)[C@]24C5=C(N=C(O5)[C@H](C(C)C)NC1=O)c1ncc(o1)-c1c[nH]c5cccc(c15)-c1cccc2c1NC4O3 (some centres unmarked) [Example 46]	0.313	0.443
CC[C@H](C)C(=O)NC1Cc2ccc3c(c2)[C@]24C5=C(N=C(O5)[C@H](C(C)C)NC1=O)c1ncc(o1)-c1c[nH]c5cccc(c15)-c1cccc2c1NC4O3 (some centres unmarked) [Example 39]	0.707	0.555
CCCC(C)(C)C(=O)NC1Cc2ccc3c(c2)[C@]24C5=C(N=C(O5)[C@H](C(C)C)NC1=O)c1ncc(o1)-c1c[nH]c5cccc(c15)-c1cccc2c1NC4O3 (some centres unmarked) [Example 41]	0.397	0.22
CC(C)[C@@H]1NC(=O)C(NS(=O)(=O)c2cccs2)Cc2ccc3c(c2)[C@]24C5=C(N=C1O5)c1ncc(o1)-c1c[nH]c5cccc(c15)-c1cccc2c1NC4O3 (some centres unmarked) [Example 75]	> 1	> 1
CO[C@H](C(=O)N[C@H]1Cc2ccc3c(c2)C24C5=C(N=C(O5)[C@H](C(C)C)NC1=O)c1ncc(o1)-c1c[nH]c5cccc(c15)-c1cccc2c1N[C@H]4O3)C(C)C (some centres unmarked) [Example 30]	0.197	0.224
C=CCOC(=O)NC1Cc2ccc3c(c2)[C@]24C5=C(N=C(O5)[C@H](C(C)C)NC1=O)c1ncc(o1)-c1c[nH]c5cccc(c15)-c1cccc2c1NC4O3 (some centres unmarked) [Example 71]	0.451	0.185
COc1ccc2c3c(cn(C)c13)-c1cnc(o1)-c1nc3oc1C14c5cc(ccc5O[C@@H]1Nc1c-2cccc14)CC(NC(=O)[C@@H](O)C(C)C)C(=O)N[C@H]3C(C)C (some centres unmarked) [Example 79]	0.022	0.027
CC(C)[C@H](O)C(=O)NC1Cc2ccc3c(c2)C24C5=C(N=C(O5)[C@H](C(C)C)NC1=O)c1ncc(o1)-c1c[nH]c5c(O)ccc(c15)-c1cccc2c1N[C@H]4O3 (some centres unmarked) [Example 77]	0.07	0.052

SMILES	IC50 [1] [µM]	IC50 [2] [µM]
CC(C)[C@H](O)C(=O)N[C@H]1Cc2ccc3c(c2)C24C5=C(N=C(O5)[C@H](C(C)C)NC1=O)c1nc(Br)c(o1)-c1c(Cl)[nH]c5cccc(c15)-c1cccc2c1N[C@H]4O3 (some centres unmarked) [Example 89]	0.158	0.079
CC1CC1C(=O)NC1Cc2ccc3c(c2)[C@]24C5=C(N=C(O5)[C@H](C(C)C)NC1=O)c1ncc(o1)-c1c[nH]c5cccc(c15)-c1cccc2c1NC4O3 (some centres unmarked) [Example 49]	0.443	0.245
CC(C)=CCC/C(C)=C/CNC1Cc2ccc3c(c2)C24C5=C(N=C(O5)[C@H](C(C)C)NC1=O)c1ncc(o1)-c1c[nH]c5cccc(c15)-c1cccc2c1N[C@H]4O3 (some centres unmarked) [Example 67]	> 1	> 1
CC(C)[C@@H]1NC(=O)C(NC(=O)C(C)(C)O)Cc2ccc3c(c2)[C@]24C5=C(N=C1O5)c1ncc(o1)-c1c[nH]c5cccc(c15)-c1cccc2c1NC4O3 (some centres unmarked) [Example 22]	0.23	0.146
CC(=O)N[C@H](C(=O)N[C@H]1Cc2ccc3c(c2)C24C5=C(N=C(O5)[C@H](C(C)C)NC1=O)c1ncc(o1)-c1c[nH]c5cccc(c15)-c1cccc2c1N[C@H]4O3)C(C)C (some centres unmarked) [Example 35]	0.232	0.183
CO[C@@](C(=O)NC1Cc2ccc3c(c2)[C@]24C5=C(N=C(O5)[C@H](C(C)C)NC1=O)c1ncc(o1)-c1c[nH]c5cccc(c15)-c1cccc2c1NC4O3)(c1ccccc1)C(F)(F)F (some centres unmarked) [Example 57]	0.58	0.618
CCC(CO)(CO)C(=O)NC1Cc2ccc3c(c2)[C@]24C5=C(N=C(O5)[C@H](C(C)C)NC1=O)c1ncc(o1)-c1c[nH]c5cccc(c15)-c1cccc2c1NC4O3 (some centres unmarked) [Example 28]	0.208	0.133
CN[C@H](C(=O)N[C@H]1Cc2ccc3c(c2)C24C5=C(N=C(O5)[C@H](C(C)C)NC1=O)c1ncc(o1)-c1c[nH]c5cccc(c15)-c1cccc2c1N[C@H]4O3)C(C)C (some centres unmarked) [Example 34]	0.221	0.393
CC(=O)O[C@H](C(=O)N[C@H]1Cc2ccc3c(c2)C24C5=C(N=C(O5)[C@H](C(C)C)NC1=O)c1ncc(o1)-c1c[nH]c5cccc(c15)-c1cccc2c1N[C@H]4O3)C(C)C (some centres unmarked) [Example 31]	0.194	0.062
CC(C)C[C@H](O)C(=O)NC1Cc2ccc3c(c2)[C@]24C5=C(N=C(O5)[C@H](C(C)C)NC1=O)c1ncc(o1)-c1c[nH]c5cccc(c15)-c1cccc2c1NC4O3 (some centres unmarked) [Example 20]	0.158	0.142
CC(C)[C@H](O)C(=O)N[C@H]1Cc2ccc3c(c2)C24C5=C(N=C(O5)[C@H](C(C)C)NC1=O)c1nc(Cl)c(o1)-c1c(Cl)[nH]c5cccc(c15)-c1cccc2c1N[C@H]4O3 (stereo in doubt) [Example 85, Diazonamide A]	0.057	0.086
CO[C@](C(=O)NC1Cc2ccc3c(c2)[C@]24C5=C(N=C(O5)[C@H](C(C)C)NC1=O)c1ncc(o1)-c1c[nH]c5cccc(c15)-c1cccc2c1NC4O3)(c1ccccc1)C(F)(F)F (some centres unmarked) [Example 58]	> 1	0.821
CC(C)[C@H](O)C(=O)N[C@H]1Cc2ccc3c(c2)C24C5=C(N=C(O5)[C@H](C(C)C)NC1=O)c1nc(Cl)c(o1)-c1c(Cl)[nH]c5cccc(c15)-c1cc(Cl)cc2c1N[C@H]4O3 (some centres unmarked) [Example 83]	0.63	0.693
CC(C)[C@@H]1NC(=O)C(NS(=O)(=O)c2ccccc2)Cc2ccc3c(c2)[C@]24C5=C(N=C1O5)c1ncc(o1)-c1c[nH]c5cccc(c15)-c1cccc2c1NC4O3 (some centres unmarked) [Example 74]	0.429	> 1
CC(C)[C@@H]1NC(=O)C(NC(=O)C2(O)CCCC2)Cc2ccc3c(c2)[C@]24C5=C(N=C1O5)c1ncc(o1)-c1c[nH]c5cccc(c15)-c1cccc2c1NC4O3 (some centres unmarked) [Example 26]	0.214	0.154
CC(C)[C@@H]1NC(=O)C(NC(=O)C2(O)CCCCC2)Cc2ccc3c(c2)[C@]24C5=C(N=C1O5)c1ncc(o1)-c1c[nH]c5cccc(c15)-c1cccc2c1NC4O3 (some centres unmarked) [Example 27]	0.181	0.128
CC(C)[C@@H]1NC(=O)C(NC(=O)/C=C/C(=O)O)Cc2ccc3c(c2)[C@]24C5=C(N=C1O5)c1ncc(o1)-c1c[nH]c5cccc(c15)-c1cccc2c1NC4O3 (some centres unmarked) [Example 56]	> 1	0.756
CC(C)[C@@H]1NC(=O)C(NC=O)Cc2ccc3c(c2)C24C5=C(N=C1O5)c1ncc(o1)-c1c[nH]c5cccc(c15)-c1cccc2c1N[C@H]4O3 (some centres unmarked) [Example 66]	0.766	0.499
CC(C)=CCC/C(C)=C/C(=O)NC1Cc2ccc3c(c2)[C@]24C5=C(N=C(O5)[C@H](C(C)C)NC1=O)c1ncc(o1)-c1c[nH]c5cccc(c15)-c1cccc2c1NC4O3 (some centres unmarked) [Example 45]	0.887	0.78
CCC(CC)C(=O)NC1Cc2ccc3c(c2)[C@]24C5=C(N=C(O5)[C@H](C(C)C)NC1=O)c1ncc(o1)-c1c[nH]c5cccc(c15)-c1cccc2c1NC4O3 (some centres unmarked) [Example 62]	0.556	0.247
